{"source": "paper PMC12391391", "about": "“The balance between B55α and Greatwall expression levels predicts sensitivity to Greatwall inhibition in cancer cells” (Nature Communications, 2025)", "assay_in_all_cases": "biochemical", "parameters_in_all_cases": "LanthaScreen kinase activity assay (Thermo Fisher), dose-dependent inhibition by C-604", "settings_in_all_cases": "read-out: IC50 (C-604)", "key": {"[1]": {"target": "GSK3B (Homo sapiens, UniProt P49841)", "sequence (P49841 whole entry)": "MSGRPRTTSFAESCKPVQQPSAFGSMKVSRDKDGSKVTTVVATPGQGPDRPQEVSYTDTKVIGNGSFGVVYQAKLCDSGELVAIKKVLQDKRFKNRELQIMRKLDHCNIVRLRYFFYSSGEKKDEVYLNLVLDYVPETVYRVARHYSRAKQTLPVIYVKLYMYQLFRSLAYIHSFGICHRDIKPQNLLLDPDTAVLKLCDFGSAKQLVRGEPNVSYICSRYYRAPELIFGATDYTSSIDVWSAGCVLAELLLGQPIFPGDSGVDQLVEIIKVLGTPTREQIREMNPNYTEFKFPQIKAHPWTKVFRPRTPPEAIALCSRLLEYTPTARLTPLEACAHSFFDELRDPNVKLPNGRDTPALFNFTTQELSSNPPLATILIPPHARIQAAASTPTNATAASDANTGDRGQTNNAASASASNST", "experimental": "(§1) To identify potential C-604 off-targets, we utilised a commercially available off-target screening service (Thermo Fisher Scientific) to assess the impact of C-604 on the in vitro activity of 100 human kinases (Supplementary Fig. 8a). Out of 100 tested targets, C-604 (1 µM) inhibited GWL (inhibition 95%) and an additional 10 kinases (inhibition ≥ 80%). […] The in vitro off-target effects of compound C-604 were determined by assessing its inhibitory potential in a panel of 100 human kinases using the LanthaScreen Kinase Activity Assay (Thermo Fisher Scientific)."}, "[2]": {"target": "MAP3K9 (Homo sapiens, UniProt P80192)", "sequence (P80192 whole entry)": "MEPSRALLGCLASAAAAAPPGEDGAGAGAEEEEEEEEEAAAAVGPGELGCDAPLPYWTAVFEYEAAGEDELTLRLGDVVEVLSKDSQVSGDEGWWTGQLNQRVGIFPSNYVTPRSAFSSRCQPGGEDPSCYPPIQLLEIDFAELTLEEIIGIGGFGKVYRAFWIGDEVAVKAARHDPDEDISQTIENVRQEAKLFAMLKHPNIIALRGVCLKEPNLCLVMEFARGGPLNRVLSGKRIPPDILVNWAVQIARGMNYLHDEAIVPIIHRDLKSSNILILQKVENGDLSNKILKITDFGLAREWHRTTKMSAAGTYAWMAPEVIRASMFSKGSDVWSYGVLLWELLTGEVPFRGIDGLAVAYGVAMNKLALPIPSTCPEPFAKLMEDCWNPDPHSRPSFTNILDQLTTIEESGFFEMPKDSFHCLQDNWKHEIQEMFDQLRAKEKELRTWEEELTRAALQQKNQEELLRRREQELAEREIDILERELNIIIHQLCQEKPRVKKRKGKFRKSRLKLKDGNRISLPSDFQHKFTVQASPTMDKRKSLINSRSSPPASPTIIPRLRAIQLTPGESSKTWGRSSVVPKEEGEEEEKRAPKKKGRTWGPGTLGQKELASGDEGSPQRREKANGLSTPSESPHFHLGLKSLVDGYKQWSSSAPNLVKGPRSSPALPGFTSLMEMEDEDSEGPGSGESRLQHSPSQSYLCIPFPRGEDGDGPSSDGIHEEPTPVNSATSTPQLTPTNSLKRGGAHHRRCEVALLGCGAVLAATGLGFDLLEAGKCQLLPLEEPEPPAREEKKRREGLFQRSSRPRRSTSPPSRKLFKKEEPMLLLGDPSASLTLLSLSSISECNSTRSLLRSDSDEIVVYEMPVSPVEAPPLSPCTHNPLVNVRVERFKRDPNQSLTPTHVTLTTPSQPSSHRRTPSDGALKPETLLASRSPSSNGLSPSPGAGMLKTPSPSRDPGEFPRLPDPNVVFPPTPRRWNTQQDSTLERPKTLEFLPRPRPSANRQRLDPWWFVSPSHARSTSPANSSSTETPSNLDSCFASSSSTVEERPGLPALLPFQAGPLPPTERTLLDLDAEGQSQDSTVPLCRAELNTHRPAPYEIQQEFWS", "experimental": "as §1"}, "[3]": {"target": "T1, NUAK1 (Homo sapiens, UniProt O60285)", "T1 sequence (O60285 1-661)": "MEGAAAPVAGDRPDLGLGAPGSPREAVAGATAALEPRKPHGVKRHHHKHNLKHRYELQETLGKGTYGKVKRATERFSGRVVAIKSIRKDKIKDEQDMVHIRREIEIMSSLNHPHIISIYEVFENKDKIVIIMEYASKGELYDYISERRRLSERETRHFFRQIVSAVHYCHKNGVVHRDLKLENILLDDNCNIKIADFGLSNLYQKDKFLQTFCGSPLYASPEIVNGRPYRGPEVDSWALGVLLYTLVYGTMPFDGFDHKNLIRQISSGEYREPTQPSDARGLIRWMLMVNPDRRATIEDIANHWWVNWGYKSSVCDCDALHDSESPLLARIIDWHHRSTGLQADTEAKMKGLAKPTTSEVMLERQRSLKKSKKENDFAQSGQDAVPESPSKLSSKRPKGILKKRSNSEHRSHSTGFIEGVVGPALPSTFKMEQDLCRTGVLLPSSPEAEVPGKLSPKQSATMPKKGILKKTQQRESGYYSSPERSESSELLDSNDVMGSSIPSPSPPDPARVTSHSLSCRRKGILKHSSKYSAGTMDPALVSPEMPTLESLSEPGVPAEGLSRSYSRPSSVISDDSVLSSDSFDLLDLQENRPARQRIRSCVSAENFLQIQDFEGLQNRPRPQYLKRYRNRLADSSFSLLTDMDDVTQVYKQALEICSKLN", "experimental": "as §1"}, "[4]": {"target": "T2, STK17A (Homo sapiens, UniProt Q9UEE5)", "T2 sequence (Q9UEE5 1-414)": "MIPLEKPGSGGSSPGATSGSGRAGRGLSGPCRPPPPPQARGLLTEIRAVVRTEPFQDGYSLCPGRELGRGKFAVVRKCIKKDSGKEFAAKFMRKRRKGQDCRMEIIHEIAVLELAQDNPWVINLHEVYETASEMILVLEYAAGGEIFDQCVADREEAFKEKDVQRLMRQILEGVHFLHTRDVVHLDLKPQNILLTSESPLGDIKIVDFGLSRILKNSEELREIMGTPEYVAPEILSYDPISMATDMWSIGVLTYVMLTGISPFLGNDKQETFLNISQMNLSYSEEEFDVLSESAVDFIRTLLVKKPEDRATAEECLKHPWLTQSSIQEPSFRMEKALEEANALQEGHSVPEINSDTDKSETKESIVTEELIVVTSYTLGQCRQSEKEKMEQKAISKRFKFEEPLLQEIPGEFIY", "experimental": "as §1"}, "[5]": {"target": "T3, ULK2 (Homo sapiens, UniProt Q8IYT8)", "T3 sequence (Q8IYT8 1-1036)": "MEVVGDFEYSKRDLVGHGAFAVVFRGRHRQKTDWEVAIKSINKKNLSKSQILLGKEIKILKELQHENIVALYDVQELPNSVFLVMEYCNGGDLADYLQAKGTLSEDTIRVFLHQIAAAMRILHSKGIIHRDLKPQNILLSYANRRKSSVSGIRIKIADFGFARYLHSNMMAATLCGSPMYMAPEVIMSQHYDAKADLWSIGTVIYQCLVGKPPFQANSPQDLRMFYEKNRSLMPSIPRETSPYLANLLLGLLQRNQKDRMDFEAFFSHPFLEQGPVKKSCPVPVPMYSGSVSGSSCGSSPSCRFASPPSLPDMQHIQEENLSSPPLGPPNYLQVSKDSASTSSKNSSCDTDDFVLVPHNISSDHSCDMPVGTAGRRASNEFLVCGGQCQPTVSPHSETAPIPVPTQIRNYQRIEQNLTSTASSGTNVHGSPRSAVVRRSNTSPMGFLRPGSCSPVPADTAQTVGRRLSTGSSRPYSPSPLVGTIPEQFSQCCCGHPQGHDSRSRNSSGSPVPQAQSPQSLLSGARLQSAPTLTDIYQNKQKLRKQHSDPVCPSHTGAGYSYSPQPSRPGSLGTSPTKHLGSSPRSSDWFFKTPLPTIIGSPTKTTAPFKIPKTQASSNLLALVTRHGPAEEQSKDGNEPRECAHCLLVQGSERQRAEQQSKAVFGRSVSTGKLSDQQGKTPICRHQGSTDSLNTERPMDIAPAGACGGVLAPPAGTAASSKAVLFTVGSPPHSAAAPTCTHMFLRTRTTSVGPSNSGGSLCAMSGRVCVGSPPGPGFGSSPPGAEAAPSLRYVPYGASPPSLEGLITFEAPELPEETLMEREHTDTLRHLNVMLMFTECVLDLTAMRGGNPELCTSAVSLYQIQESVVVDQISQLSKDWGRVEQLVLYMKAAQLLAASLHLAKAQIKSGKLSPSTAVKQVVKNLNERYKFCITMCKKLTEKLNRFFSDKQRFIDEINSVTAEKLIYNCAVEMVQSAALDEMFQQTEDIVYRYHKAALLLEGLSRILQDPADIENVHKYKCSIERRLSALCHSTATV", "experimental": "as §1"}}, "data": [{"smiles": "CNC(=O)c1c[nH]c2ncc(-c3ccc(OCCN4CCC(c5ccccc5)C4)cc3)nc12", "note": "(racemic) [compound 21, C-604]", "values": [{"measurement": "IC50", "setting": "[1]", "value": 283, "unit": "nM"}, {"measurement": "IC50", "setting": "[2]", "value": 29.3, "unit": "nM"}, {"measurement": "IC50", "setting": "[3]", "value": 10.1, "unit": "nM"}, {"measurement": "IC50", "setting": "[4]", "value": 154, "unit": "nM"}, {"measurement": "IC50", "setting": "[5]", "value": 21.6, "unit": "nM"}]}]}
